Laboratory results reported in ChEMBL document CHEMBL3045026, “Cytotoxic clerodane diterpenes from Glossocarya calcicola” (Phytochemistry, 2005).
Converted amounts (≈) assume the structure as drawn.

Legend:
HepG2 = assay: Cytotoxicity against Homo sapiens (human) HepG2 cells; assay type: functional, cell-based
[1] = Cytotoxicity against Drosophila melanogaster D.mel-2 cells; assay type: functional, cell-based

| SMILES | IC50 (HepG2) | IC50 [1] |
| --- | --- | --- |
| C=C1CC[C@@H](OC(=O)C(C)CC)[C@H]2[C@@]1(C)[C@@H](O)C(=O)C(=C)[C@]2(C)C[C@@H](OC(=O)/C(C)=C/C)[C@]1(O)COC(=O)C1 (relative stereo) | 2.1 mg/L (≈ 3.84 µM) | 8.3 mg/L (≈ 15.2 µM) |
| C=C1CC[C@@H](OC(=O)C(C)C)[C@H]2[C@@]1(C)[C@@H](O)C(=O)C(=C)[C@]2(C)C[C@@H](OC(=O)/C(C)=C/C)[C@]1(O)COC(=O)C1 (relative stereo) | 2.06 mg/L (≈ 3.87 µM) | 9.04 mg/L (≈ 17 µM) |
